Test results: US9540343B2 (Gilead Sciences, Inc., priority 2011, dated 2017)

Legend:
MT-4 cells = assay: in vitro; details: uninfected MT-4 cells, same protocol as Test A, 5 days, CellTiter-Glo
Method in brief: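 Cytoprotection read-out: CellTiter-Glo chemiluminescence after 5 days at 37 °C of HIV-IIIb-infected MT-4 cells (m.o.i. 0.003) with compound in 10-point 3-fold dilutions, quadruplicate, 10% FBS. Cytotoxicity (CC50) measured identically without virus.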

HIV-IIIb = assay: Test A: Antiviral assay in MT4 cells; type: cell-based, HIV-1; details: percent inhibition of virus-induced cell killing, from dose response curve at 2 uM drug; MT-4 cells infected with HIV-IIIb, 5 days, CellTiter-Glo

Row | Compound | CC50 (MT-4 cells) | % inhibition at 2 μM (HIV-IIIb)
1 | CN(C)C(C(=O)N[C@@H](Cc1cc(F)cc(F)c1)c1ncccc1-c1ccc(F)c(C(N)=O)c1)c1ccc(F)cc1 (single isomer, unassigned) [Example 590] | 38.6 µM | 13%
2 | CC(C)CC(=O)NS(=O)(=O)c1ccc(-c2cccnc2C(Cc2cc(F)cc(F)c2)NC(=O)Cn2nc(C(F)F)c3c2C(F)(F)C2C[C@H]32)cc1 (stereo partly drawn) [Example 427, (S)—N-(1-(3-(4-(N-(3-methylbutanoyl)sulfamoyl)phenyl)-pyridin-2-yl)-2-(3,5-difluorophenyl)ethyl)-2-(3-(difluoromethyl)-5,6-dihydro-4,5-(methano)-6,6-difluoro-cyclopenta[c]pyrazol-1(4H)-yl)acetamide] | 32.8 µM | 0%
3 | CNS(=O)(=O)c1ccc(-c2cccnc2C(Cc2cc(F)cc(F)c2)NC(=O)Cn2nc(C(F)F)c3c2C(F)(F)C2C[C@H]32)cc1 (stereo partly drawn) [Example 429, (S)—N-(1-(3-(4-(N-methylsulfamoyl)phenyl)-pyridin-2-yl)-2-(3,5-difluorophenyl)ethyl)-2-(3-(difluoromethyl)-5,6-dihydro-4,5-(methano)-6,6-difluoro-cyclopenta[c]pyrazol-1(4H)-yl)acetamide] | 41.6 µM | 57%
4 | CC12CCC(c3c(C(F)(F)F)nn(CC(=O)N[C@@H](Cc4cc(F)cc(F)c4)c4ncccc4-c4ccc(F)c(C(N)=O)c4)c31)C2(C)C (stereo partly drawn) [Example 93B, (S)-5-(2-(2-(3,5-difluorophenyl)-1-(2-(D-4,5,6,7-Tetrahydro-3-trifluoromethyl-7,8,8-trimethyl-1H-4,7-(methano)indazol-1-yl)acetamido)ethyl)pyridin-3-yl)-2-fluorobenzamide] | 8.14 µM | 0%
5 | NC(=O)c1cc(-c2cccnc2[C@H](Cc2cc(F)cc(F)c2)NC(=O)Cn2nc(C(F)(F)F)c3c2[C@H]2C[C@H]2C3)ccc1F (single isomer, unassigned) [Example 186] | 16.8 µM | 80%
6 | NC(=O)c1cc(-c2cccnc2[C@H](Cc2cc(F)cc(F)c2)NC(=O)C(c2ccccc2)C2CCCC2)ccc1F (single isomer, unassigned) [Example 552] | 11 µM | 8%
7 | Cc1cc2ncn(C(CC(F)(F)F)C(=O)N[C@@H](Cc3cc(F)cc(F)c3)c3ncccc3-c3ccc(F)c(C(N)=O)c3)c2cc1C (single isomer, unassigned) [Example 571] | 34.8 µM | 2%
8 | NC(=O)c1cc(-c2cccnc2[C@H](Cc2cc(F)cc(F)c2)NC(=O)Cn2nc(C(F)F)c3c2CC2CC32)ccc1F (single isomer, unassigned) [Example 249] | 23.4 µM | 100%
9 | (S)-5-(2-(1-(2-(5-(difluoromethyl)-3-phenyl-1H-pyrazol-1-yl)acetamido)-2-(3,5-difluorophenyl)ethyl)pyridin-3-yl)-2-fluorobenzamide [Example 240C] | 34.9 µM | 0%
10 | O=C(Cn1nc(C(F)F)c2c1C1CC1CC2)NC(Cc1cc(F)cc(F)c1)c1ncncc1-c1cnc2[nH]ccc2c1 (single isomer, unassigned) [Example 348] | 14.2 µM | 103%
11 | CCC(C(=O)N[C@@H](Cc1cc(F)cc(F)c1)c1ncccc1-c1ccc(F)c(C(N)=O)c1)n1cc(C(F)(F)F)cn1 (single isomer, unassigned) [Example 566] | 23.7 µM | 3%
12 | CCC(C(=O)N[C@@H](Cc1cc(F)cc(F)c1)c1ncccc1-c1ccc(F)c(C(N)=O)c1)n1nc(C(F)(F)F)c2c1CCCC2 (single isomer, unassigned) [Example 532] | 12.2 µM | 9%
13 | Cc1cc(-c2cccnc2[C@H](Cc2cc(F)cc(F)c2)NC(=O)Cc2c[nH]c3ccc(F)cc23)cnc1F [Example 399] | 12.8 µM | 31%
14 | NC(=O)c1cc(-c2cccnc2[C@H](Cc2cc(F)cc(F)c2)NC(=O)Cn2nc(C(F)F)c3c2C2CC2C3)ccc1F (stereo partly drawn) [Example 163C, 5-(2-((1S)-1-(2-(3-(difluoromethyl)-4,4-a,5,5a-tetrahydro-1H-cyclopropa[4,5]cyclopenta[1,2-c]pyrazol-1-yl)acetamido)-2-(3,5-difluorophenyl)ethyl)pyridin-3-yl)-2-fluorobenzamide] | 27.4 µM | 105%
15 | NC(=O)c1cc(-c2cccnc2[C@H](Cc2cc(F)cc(F)c2)NC(=O)Cn2nc(C(F)(F)F)c3c2C(O)C2CC32)ccc1F (stereo partly drawn) [Example 156, 5-(2-((1S)-2-(3,5-difluorophenyl)-1-(2-(5-hydroxy-3-(trifluoromethyl)-3b,4,4a,5-tetrahydro-1H-cyclopropa[3,4]cyclopenta[1,2-c]pyrazol-1-yl)acetamido)ethyl)pyridin-3-yl)-2-fluorobenzamide] | 39.2 µM | 30%
16 | O=C(N[C@@H](Cc1cc(F)cc(F)c1)c1ncccc1-c1ccc(Cl)cc1)C(c1c[nH]c2ccc(F)cc12)C(F)(F)F (single isomer, unassigned) [Example 36G] | 6.93 µM | 0%
17 | CCC(C(=O)N[C@@H](Cc1cc(F)cc(F)c1)c1ncccc1-c1ccc(F)c(C(N)=O)c1)n1nc(C(F)(F)F)c2c1CCCC2 (single isomer, unassigned) [Example 531] | 7.4 µM | 98%
